By EC50 is commonly meant the concentration that produces a half-maximal response.

Activity calls are given as the source filed them.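 The calls were made as follows: active = compounds raising absorbance, a cell survival measure, over 1.5-fold at the top dose, rising with dose; inactive = the rest.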

A short description of assay [1]: survival after telomere uncapping, modulators, dose response, cell-based, HCT116, Ad-hTR-mut infection, MTT (AID 1259347). To be noted: HCT116 Ad-hTR-mut infected, survival, MTT 4 d; measured here: second series; at 10 µM; stronger effect = higher value.
The test system of assay [2] is HCT116 Ad-hTR-mut infected, survival, MTT 4 d. The assay is described as above.

Consider `Cc1nc2cc(-c3ccc(Br)cc3)nn2c(C)c1CCC(=O)O`, for which the fold survival in assay [1] is 1.44. Also, in assay [2], the EC50 was below 10 µM. On to `Cc1ccc(C(=O)Nc2ccc(S(=O)(=O)O)c3cc(S(=O)(=O)O)cc(S(=O)(=O)O)c23)cc1NC(=O)c1cccc(NC(=O)Nc2cccc(C(=O)Nc3cc(C(=O)Nc4ccc(S(=O)(=O)O)c5cc(S(=O)(=O)O)cc(S(=O)(=O)O)c45)ccc3C)c2)c1`, for which the fold survival in assay [1] stood at 2.65. Further, the concentration giving a half-maximal response (EC50) in assay [2] was below 10 µM. For `C/C(=C\C(=O)Nc1ccccc1C(=O)O)c1ccc2ccccc2c1`, the EC50 in assay [2] is > 0.1 µM (inactive).

Values taken from PubChem BioAssay AID1259347.
